Measured values reported in US8658675B2, “Pyridin-4-yl derivatives” (Actelion Pharmaceuticals Ltd., priority 2009, dated 2014).

Legend:
rat trachea rings [1] = assay: Measurement of isometric force development: rat trachea ring constriction; parameters: species or system Female Wistar rats; conditions: compound at 10 μM; in % of the constriction induced by 50 mM KCl
circulating lymphocytes = assay: Assessment of in vivo efficacy: circulating lymphocytes after oral administration; parameters: species or system normotensive male Wistar rats; conditions: Rattus norvegicus, Lymphocyte; 6 h after oral administration of 10 mg/kg, male Wistar rats, compared to vehicle group; read-out: Lymphocyte counts
Description: The efficacy of the compounds of Formula (I) is assessed by measuring the circulating lymphocytes after oral administration of 3 to 30 mg/kg of a compound of Formula (I) to normotensive male Wistar rats. The animals are housed in climate-controlled conditions with a 12 h-light/dark cycle, and have free access to normal rat chow and drinking water. Blood is collected before and 3, 6 and 24 h after drug administration. Full blood is subjected to hematology using Advia Hematology system (Bayer Diagnostics, Zurich, Switzerland).
All data are presented as mean±SEM. Statistical analyses are performed by analysis of variance (ANOVA) using Statistica (StatSoft) and the Student-Newman-Keuls procedure for multiple comparisons. The null hypothesis is rejected when p<0.05.
Lymphocyte counts 6 h after oral administration have been measured for 23 out of 30 exemplified compounds and are in the range of −42% to −80% with an average of −63%.

human S1P1 receptor = human S1P1 receptor (Homo sapiens, UniProt P21453); assay: GTPγS assay to determine EC50 values; format: biochemical; conditions: membranes of CHO cells expressing recombinant human S1P1 receptor; 35S-GTPγS binding
Description: GTPγS binding assays are performed in 96 well microtiter plates (Nunc, 442587) in a final volume of 200 μl, using membrane preparations of CHO cells expressing recombinant human S1P1 receptor. Assay conditions are 20 mM Hepes (Fluka, 54461), 100 mM NaCl (Fluka, 71378), 5 mM MgCl2 (Fluka, 63064), 0.1% BSA (Calbiochem, 126609), 1 μM GDP (Sigma, G-7127), 2.5% DMSO (Fluka, 41644), […] ^35S-GTPγS (Amersham Biosciences, SJ1320). The pH is 7.4. Test compounds are dissolved and diluted in 100% DMSO and pre-incubated at room temperature for 30 min in 150 μl of the above assay buffer, in the absence of ^35S-GTPγS. After addition of 50 μl of ^35S-GTPγS, the assay is incubated for 1 h at rt. The assay is terminated by transfer of the reaction mixture to a Multiscreen plate (Millipore, MAHFC1H60) using a cell harvester from Packard Biosciences, and the plates are washed with ice-cold 10 mM Na2HPO4/NaH2PO4 (70%/30%), dried, sealed at the bottom and, after addition of 25 μl MicroScint20 (Packard Biosciences, order#6013621), sealed on the top. Membrane-bound ^35S-GTPγS is measured with a TopCount from Packard Biosciences.
EC50 is the concentration of agonist inducing 50% of the maximal specific ^35S-GTPγS binding. Specific binding is determined by subtracting non-specific binding from maximal binding. Maximal binding is the amount of cpm bound to the Multiscreen plate in the presence of 10 μM of S1P. Non-specific binding is the amount of binding in the absence of an agonist in the assay.
Agonistic activities (EC50 values) of all exemplified compounds have been measured.

rat trachea rings [2] = assay: Measurement of isometric force development: rat trachea ring constriction; parameters: species or system Female Wistar rats; conditions: for % trachea constriction at 1 μM: compound at 1 μM, in % of the constriction induced by 50 mM KCl; for potential to constrict rat trachea rings (comparison in words): compared to closest prior art analogues of WO 2008/029371 or to Example 2
Description: Animals were obtained from RCC Ltd (Füllinsdorf, Switzerland). Female Wistar rats were euthanized by exposure to CO2. The tracheae were excised and rings from the lower segments were prepared. Rings of trachea were suspended in tissue baths (10 mL) containing Krebs-Henseleit buffer of the following composition (mM): NaCl 115; KCl 4.7; MgSO4 1.2; KH2PO4 1.5; CaCl2 2.5; NaHCO3 25; glucose 10. Bathing solution was maintained at 37° C. and aerated with 95% O2/5% CO2 (pH 7.4). A resting force of 2 g (20 mN) was applied to the ring preparation, and changes in force generation were measured using an isometric force recorder (EMKA Technologies Inc, Paris, France). Viability of rings was assessed by exposure to a depolarizing concentration of KCl (50 mM). Contraction of trachea was expressed as a percentage of the response to KCl.
All compounds were prepared as stock solutions of 0.3 mM in pure DMSO. Compounds were added to the bath (10 mL) in a volume of 33 μL to give a final bath concentration of DMSO of 0.33%.
Contraction of trachea was measured for 15 out of 30 exemplified compounds.

Sequence of human S1P1 receptor (P21453 whole entry): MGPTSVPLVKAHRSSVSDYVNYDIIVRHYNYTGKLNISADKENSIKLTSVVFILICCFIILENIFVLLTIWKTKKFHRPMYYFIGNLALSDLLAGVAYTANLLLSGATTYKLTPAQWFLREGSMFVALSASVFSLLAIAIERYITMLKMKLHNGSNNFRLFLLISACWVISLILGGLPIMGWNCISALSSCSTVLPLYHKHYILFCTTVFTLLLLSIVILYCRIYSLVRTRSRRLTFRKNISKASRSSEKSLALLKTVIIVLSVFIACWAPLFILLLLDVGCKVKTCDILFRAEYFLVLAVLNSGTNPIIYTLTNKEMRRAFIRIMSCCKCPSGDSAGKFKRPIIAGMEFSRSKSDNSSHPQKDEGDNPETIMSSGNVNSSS

With `CCc1cc(-c2noc(-c3cc(OC)nc(C(CC)CC)c3)n2)cc(C)c1NS(C)(=O)=O` [Example 18, N-(2-Ethyl-4-{5-[2-(1-ethyl-propyl)-6-methoxy-pyridin-4-yl]-[1,2,4]oxadiazol-3-yl}-6-methyl-phenyl)-methanesulfonamide] the “% trachea constriction at 10 μM” value (rat trachea rings [1]) was less than 5%, the change in vivo at 10 mg/kg (circulating lymphocytes) was -42% and the EC50 (human S1P1 receptor) was 2.5 nM. The “% trachea constriction at 1 μM” value (rat trachea rings [2]) was less than 5%.
For `CCc1cc(-c2noc(-c3cc(OC)nc(C4CCCC4)c3)n2)cc(C)c1NS(C)(=O)=O` [Example 19, N-{4-[5-(2-Cyclopentyl-6-methoxy-pyridin-4-yl)-[1,2,4]oxadiazol-3-yl]-2-ethyl-6-methyl-phenyl}-methanesulfonamide], the “% trachea constriction at 10 μM” value (rat trachea rings [1]) was less than 5%, the change in vivo at 10 mg/kg (circulating lymphocytes) was -61% and the EC50 (human S1P1 receptor) was 1 nM. For the same compound, the “% trachea constriction at 1 μM” value (rat trachea rings [2]) was less than 5%.
For `CCc1cc(-c2noc(-c3cc(CCC(C)C)nc(OC)c3)n2)cc(C)c1OC[C@@H](O)CNC(=O)CO` [Example 16, N-[(2S)-3-(2-Ethyl-4-{5-[2-methoxy-6-(3-methyl-butyl)-pyridin-4-yl]-[1,2,4]oxadiazol-3-yl}-6-methyl-phenoxy)-2-hydroxy-propyl]-2-hydroxy-acetamide], the change in vivo at 10 mg/kg (circulating lymphocytes) was -73%, the EC50 (human S1P1 receptor) was 0.7 nM and the “potential to constrict rat trachea rings (comparison in words)” value (“potential to constrict rat trachea rings” for short) (rat trachea rings [2]) was “markedly reduced potential to constrict rat trachea rings”. The “% trachea constriction at 1 μM” value (rat trachea rings [2]) was less than 5%.
`CCc1cc(-c2noc(-c3cc(OC)nc(C4CCCC4)c3)n2)cc(C)c1OC[C@@H](O)CN(C)C(=O)CO` [Example 10, N-((2S)-3-{4-[5-(2-Cyclopentyl-6-methoxy-pyridin-4-yl)-[1,2,4]oxadiazol-3-yl]-2-ethyl-6-methyl-phenoxy}-2-hydroxy-propyl)-2-hydroxy-N-methyl-acetamide] was tested, and the “% trachea constriction at 10 μM” value (rat trachea rings [1]) was less than 5%, the change in vivo at 10 mg/kg (circulating lymphocytes) was -68% and the EC50 (human S1P1 receptor) was 2.6 nM. For the same compound, the “% trachea constriction at 1 μM” value (rat trachea rings [2]) was less than 5%.
With `CCc1cc(-c2noc(-c3cc(OC)nc(C4CCCC4)c3)n2)cc(C)c1OC[C@@H](O)CNC(=O)CO` [Example 7, N-((2S)-3-{4-[5-(2-Cyclopentyl-6-methoxy-pyridin-4-yl)-[1,2,4]oxadiazol-3-yl]-2-ethyl-6-methyl-phenoxy}-2-hydroxy-propyl)-2-hydroxy-acetamide] the change in vivo at 10 mg/kg (circulating lymphocytes) was -65%, the EC50 (human S1P1 receptor) was 0.6 nM and the “potential to constrict rat trachea rings” value (rat trachea rings [2]) was “markedly reduced potential to constrict rat trachea rings”. The “% trachea constriction at 1 μM” value (rat trachea rings [2]) was 50%.
In the case of `CCc1cc(-c2noc(-c3cc(OC)nc(C4CCCC4)c3)n2)cc(C)c1OC[C@H](O)CO` [Example 3, (R)-3-{4-[5-(2-Cyclopentyl-6-methoxy-pyridin-4-yl)-[1,2,4]oxadiazol-3-yl]-2-ethyl-6-methyl-phenoxy}-propane-1,2-diol], the change in vivo at 10 mg/kg (circulating lymphocytes) is reported as -63%, the EC50 (human S1P1 receptor) is reported as 1 nM and the “potential to constrict rat trachea rings” value (rat trachea rings [2]) is reported as “same low potential to constrict rat trachea rings”. For the same compound, the “% trachea constriction at 1 μM” value (rat trachea rings [2]) was less than 5%.
`CCc1cc(-c2noc(-c3cc(OC)nc(C4CCCC4)c3)n2)cc(C)c1OC[C@@H](O)CO` [Example 2, (S)-3-{4-[5-(2-Cyclopentyl-6-methoxy-pyridin-4-yl)-[1,2,4]oxadiazol-3-yl]-2-ethyl-6-methyl-phenoxy}-propane-1,2-diol] was tested, and the “% trachea constriction at 10 μM” value (rat trachea rings [1]) was less than 5%, the change in vivo at 10 mg/kg (circulating lymphocytes) was -70% and the EC50 (human S1P1 receptor) was 0.9 nM. The “potential to constrict rat trachea rings” value (rat trachea rings [2]) was “markedly reduced potential to constrict rat trachea rings” and the “% trachea constriction at 1 μM” value (rat trachea rings [2]) was less than 5%.
For `CCc1cc(-c2noc(-c3cc(OC)nc(C4CCCCC4)c3)n2)cc(C)c1OC[C@@H](O)CNC(=O)CO` [Example 8, N-((2S)-3-{4-[5-(2-Cyclohexyl-6-methoxy-pyridin-4-yl)-[1,2,4]oxadiazol-3-yl]-2-ethyl-6-methyl-phenoxy}-2-hydroxy-propyl)-2-hydroxy-acetamide], the change in vivo at 10 mg/kg (circulating lymphocytes) was -58%, the EC50 (human S1P1 receptor) was 10.8 nM and the “% trachea constriction at 1 μM” value (rat trachea rings [2]) was less than 5%.
